Results from article PMC10728895, “Stapled Phd Peptides Inhibit Doc Toxin Induced Growth Arrest in Salmonella” (ACS Chemical Biology, 2023).
“Also recorded” adds a separate entry of the source. Positions of bridges follow the written chain, without caps; N, C: chain ends. Non-standard residues stand in square brackets, D forms with d. Residues, ends and D or L forms follow the SMILES beside them. S5 = C=CCCC[C@](C)(N)C(=O)O; Nle = CCCC[C@H](N)C(=O)O

Tests used:
DocSTm toxin = conditions: DocSTm 5 μM, peptide 50 μM; for Average Tm of DocSTm in the presence of peptide: pH 8.0, average ± SD, replicates 3-48 (Table S3)
Method in brief: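 Thermal shift with 5 μM recombinant Doc toxin and 50 μM Phd peptides in 20 mM K2HPO4, 50 mM (NH4)2SO4, pH 8.0, SYPRO Orange 3×, ramped 25–95 °C. Tm from Boltzmann fit; ΔTm is peptide-bound minus free DocSTm Tm, triplicates.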

[1] = system: S. typhimurium (14028s) Δphd-doc::Km strain expressing DocSTm (pBAD33::doc); assay: Growth rescue experiments in DocSTm-expressing S. typhimurium; assay type: cell-based; conditions: three independent experiments; for Rescue from DocSTm-induced growth inhibition (OD600): 10 μM synthetic peptide, 24 h, 37 °C, start OD600 0.1, M9 minimal medium with 0.5% arabinose
Procedure: S. typhimurium (14028s) Δphd-doc::Km strains carrying pCA24N (empty vector or encoding for the Phd^52–73 variant) and pBAD33::doc plasmids were grown overnight in LB medium containing 1% glucose and supplemented with 100 μg/mL carbenicillin and 34 μg/mL chloramphenicol antibiotics. Cultures were then diluted to an OD600 of approximately 0.1 into 200 μL of fresh M9 minimal medium supplemented with 0.5% arabinose, 100 μg/mL carbenicillin, 34 μg/mL chloramphenicol, and containing 2 or 10 μM of the indicated synthetic Phd^52–73 peptide. Untreated DocSTm-expressing S. typhimurium as well as S. typhimurium coexpressing Doc and Phd^52–73 peptides were included as controls in each experiment. After 2 h of incubation at RT, samples were transferred to a flat-bottom 96-well plate (Greiner), and OD600 was monitored every 15 min for 24 h at 37 °C using an Infinite M Plex plate reader (Tecan LifeScience) and orbital shaking with 1 mm amplitude. Peptides were tested in three independent experiments.

[2] = system: DocSTm (phosphorylation of EF-TuSTm); assay: Dot blot EF-Tu phosphorylation assay; assay type: biochemical, Salmonella Typhimurium; conditions: DocSTm 1 μM, EF-TuSTm 3 μM, peptide 10 μM to 5 nM (3-fold dilutions), 16 h RT, dot blot anti-phosphothreonine; compared at three times the DocSTm concentration; two independent experiments

Compound	Average Tm of DocSTm in the presence of peptide (DocSTm toxin) [°C]	Growth rescue kinetics ([1]; 10 μM peptide, growth curves over 24 h at 37 °C)	Rescue from DocSTm-induced growth inhibition (OD600) [1]	ΔTm (thermal shift) of DocSTm in the presence of peptide (DocSTm toxin; SYPRO Orange 3×, 20 mM K2HPO4, 50 mM (NH4)2SO4, pH 8.0, average Tm with peptide minus average Tm of free DocSTm, mean ± SD) [°C]	Inhibition of EF-TuSTm phosphorylation by DocSTm (concentration needed for full inhibition) [2]
CCCC[C@H](NC(=O)[C@H](Cc1c[nH]c2ccccc12)NC(C)=O)C(=O)N[C@@H](CC(N)=O)C(=O)N[C@@H](CC(N)=O)C(=O)N[C@@H](CCC(=O)O)C(=O)N[C@@H](Cc1ccccc1)C(=O)N[C@@]1(C)CCCC=CCCC[C@@](C)(C(=O)N[C@H](C(=O)N[C@@H](Cc2c[nH]cn2)C(=O)NCC(=O)N[C@@H](CCCNC(=N)N)C(=O)N[C@@H](CCC(N)=O)C(=O)N[C@@H](CC(C)C)C(=O)N[C@@H](CCCNC(=N)N)C(=O)N[C@@H](CCCNC(=N)N)C(=O)N[C@@H](CC(C)C)C(=O)N[C@@H](C)C(=O)N[C@@H](CCCNC(=N)N)C(=O)N[C@@H](CCCCN)C(=O)O)C(C)C)NC(=O)[C@H](CCCC)NC(=O)[C@H]([C@@H](C)CC)NC(=O)[C@H](C)NC1=O [Peptide 36] (Ac-W[Nle]NNEF[S5]AI[Nle][S5]VHGRQLRRLARK-OH; staple 7-11)	61.3 ± 1.1	faster growth rescue than peptide 1; also recorded: more rapidly than 1; also recorded: faster rate than the unmodified peptide 1	reproducibly rescued DocSTm-induced growth arrest; also recorded: growth rescue was also observed; also recorded: fully rescued	–	–
CCCC[C@H](NC(=O)[C@H](Cc1c[nH]c2ccccc12)NC(C)=O)C(=O)N[C@@H](CC(=O)O)C(=O)N[C@@H](CC(=O)O)C(=O)N[C@@H](CCC(=O)O)C(=O)N[C@@H](Cc1ccccc1)C(=O)N[C@@H](C)C(=O)N[C@@H](C)C(=O)N[C@H](C(=O)N[C@@H](CCCC)C(=O)N[C@@H](C)C(=O)N[C@H](C(=O)N[C@@H](Cc1c[nH]cn1)C(=O)NCC(=O)N[C@@H](CC(N)=O)C(=O)N[C@@H](CCC(=O)O)C(=O)N[C@@H](CC(C)C)C(=O)N[C@@H](CCCNC(=N)N)C(=O)N[C@@H](CCC(=O)O)C(=O)N[C@@H](CC(C)C)C(=O)N[C@@H](C)C(=O)N[C@@H](CC(=O)O)C(=O)N[C@@H](CCCCN)C(=O)O)C(C)C)[C@@H](C)CC [Peptide 1] (Ac-W[Nle]DDEFAAI[Nle]AVHGNELRELADK-OH)	71.0 ± 1.1	–	consistent and full rescue; also recorded: growth rescue was also observed	28.8 ± 2.7	fully inhibited
